Measured values from PubChem BioAssay (NCI).
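Protocol summary: plate cells (96-well), add compound at 5 concentrations, incubate 48 h, interpolate endpoints linearly. TGI marks complete inhibition of growth.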

Assays:
Test in all cases: inhibition of tumour cell growth, NCI panel, 48 h
NCI-H23 lung = test system: NCI-H23 lung
OVCAR-4 ovarian = test system: OVCAR-4 ovarian
SK-OV-3 ovarian = test system: SK-OV-3 ovarian
UACC-257 melanoma = test system: UACC-257 melanoma
LOX IMVI melanoma = test system: LOX IMVI melanoma
ACHN renal = test system: ACHN renal
A549 NSCLC = test system: A549 NSCLC
UO-31 renal = test system: UO-31 renal
OVCAR-5 ovarian = test system: OVCAR-5 ovarian
A498 renal = test system: A498 renal
M14 melanoma = test system: M14 melanoma
OVCAR-8 ovarian = test system: OVCAR-8 ovarian
SF-539 CNS = test system: SF-539 CNS
COLO 205 colon = test system: COLO 205 colon
U251 CNS = test system: U251 CNS
IGROV1 ovarian = test system: IGROV1 ovarian
HS 578T breast = test system: HS 578T breast
BT-549 breast = test system: BT-549 breast
NCI/ADR-RES ovarian = test system: NCI/ADR-RES ovarian
SNB-19 CNS = test system: SNB-19 CNS

| Structure (SMILES) | TGI (NCI-H23 lung) [µM] | TGI (OVCAR-4 ovarian) [µM] | TGI (SK-OV-3 ovarian) [µM] | TGI (UACC-257 melanoma) [µM] | TGI (LOX IMVI melanoma) [µM] | TGI (ACHN renal) [µM] | TGI (A549 NSCLC) [µM] | TGI (UO-31 renal) [µM] | TGI (OVCAR-5 ovarian) [µM] | TGI (A498 renal) [µM] | TGI (M14 melanoma) [µM] | TGI (OVCAR-8 ovarian) [µM] | TGI (SF-539 CNS) [µM] | TGI (COLO 205 colon) [µM] | TGI (U251 CNS) [µM] | TGI (IGROV1 ovarian) [µM] | TGI (HS 578T breast) [µM] | TGI (BT-549 breast) [µM] | TGI (NCI/ADR-RES ovarian) [µM] | TGI (SNB-19 CNS) [µM] |
| --- | --- | --- | --- | --- | --- | --- | --- | --- | --- | --- | --- | --- | --- | --- | --- | --- | --- | --- | --- | --- |
| CCCCCCC(C)OC(=O)/C=C(\CC(=O)OC(C)CCCCCC)C(=O)OC(C)CCCCCC (stereo not given) | > 100 | > 100 | > 100 | > 100 | > 100 | > 100 | > 100 | > 100 | > 100 | > 100 | > 100 | > 100 | > 100 | > 100 | > 100 | > 100 |  |  |  |  |
| CCN(CC)C(=O)N1CN(c2ccccc2)C2(CCN(CCCSc3ccc(F)cc3)CC2)C1=O | 22.4 | > 100 | 63 | 12.8 | 10.7 | 15.8 | > 100 | 22.6 | 36.9 |  | 15.3 | 54.4 | 20.7 |  | 26.8 |  | 16.6 | 31.4 | 83.4 | > 100 |
| CC1(C)CC2(C)CC1CC2NC(=O)CCN1CCOCC1 (stereo not given) | > 100 | > 100 | > 100 | > 100 |  | > 100 | > 100 | > 100 | > 100 | > 100 | > 100 | > 100 | > 100 | > 100 | > 100 | > 100 | > 100 | > 100 |  | > 100 |
| CC(=O)O[C@H]1[C@@H](OC(C)=O)C(C)(C)/C=C/[C@H](C)C(=O)[C@@]2(OC(C)=O)C[C@@](C)(OC(C)=O)[C@H](OC(C)=O)[C@@H]2[C@H]2OC(=O)CC[C@@]2(OC(=O)c2ccccc2)[C@@H]1OCC(C)C | > 100 | > 100 | > 100 | > 100 | > 100 | > 100 |  | > 100 | > 100 |  | > 100 | > 100 | > 100 | > 100 | > 100 | > 100 | 65.4 | > 100 | > 100 | > 100 |
| CSCCC(NC(=O)OCc1ccccc1)NC(=O)OCc1ccccc1 | > 100 | > 100 | > 100 | > 100 | > 100 | > 100 | > 100 | > 100 | > 100 |  | > 100 | > 100 |  | > 100 | > 100 | > 100 | > 100 |  | > 100 | > 100 |
| NC(=O)CC(N=C1C(=O)OC(C(O)CO)C1=NC(CC(N)=O)C(=O)O)C(=O)O (stereo not given) | > 100 | > 100 | > 100 | > 100 |  | > 100 | > 100 | > 100 |  | > 100 | > 100 | > 100 | > 100 | > 100 | > 100 | > 100 | > 100 |  | > 100 | > 100 |
| c1ccc(C2=NCCc3cc4c(cc32)OCO4)cc1 | > 100 | > 100 | > 100 | > 100 | > 100 |  | > 100 |  | > 100 | > 100 | > 100 | > 100 | > 100 | > 100 | > 100 | > 100 | > 100 |  | > 100 | > 100 |
| CCOc1ccc2nc(NC(NC(=O)c3cccnc3)(C(F)(F)F)C(F)(F)F)sc2c1 | 65.5 | > 100 | > 100 | 69.4 |  | > 100 | > 100 | > 100 | > 100 |  | > 100 | 88 | > 100 | > 100 | > 100 |  | > 100 | > 100 | 93.3 | > 100 |
| Cc1ccc(S(=O)(=O)NC(=O)NC(Cc2ccc(O)c(O)c2)C(=O)O)cc1 (stereo not given) | > 100 | > 100 |  | > 100 | > 100 | > 100 | > 100 | > 100 | > 100 | > 100 | > 100 | > 100 |  | > 100 | > 100 | > 100 |  | > 100 | > 100 | > 100 |
| O=c1c2ccccc2[nH]c2cc(O)cc(O)c12 | > 100 | > 100 | > 100 | > 100 | > 100 | > 100 | > 100 | > 100 |  |  | > 100 | > 100 | > 100 |  | > 100 | > 100 |  |  |  | > 100 |
| O=[N+]([O-])c1ccc(Cl)cc1N/N=C/c1cccc2cccnc12 | > 100 | > 100 | > 100 | > 100 |  | > 100 | > 100 | > 100 |  |  | > 100 | > 100 | > 100 | > 100 | > 100 | > 100 | > 100 | > 100 | > 100 | > 100 |
| CSc1nc2c(=O)n(-c3ccccc3)c(=S)n(-c3ccccc3)c2s1 | > 100 | > 100 | > 100 | > 100 | > 100 | > 100 | > 100 | > 100 | > 100 |  | > 100 | > 100 | > 100 | > 100 | > 100 | > 100 | 94.7 |  | > 100 | 64.7 |
| CC(NC(C#N)CC12CC3CC(CC(C3)C1)C2)c1ccccc1 (stereo not given) |  |  | > 100 | > 100 | 62.7 | > 100 | > 100 | > 100 | > 100 | > 100 | > 100 | > 100 |  | > 100 | > 100 | > 100 |  |  | > 100 | > 100 |
| COc1cc(C2c3cc4c(cc3[C@@H](Nc3cccc([N+](=O)[O-])c3)C3COC(=O)[C@H]23)OCO4)cc(OC)c1O (stereo not given in full) | 4.65 | > 100 | 9.67 | 35.2 | 19.6 |  | 4.38 | > 29 | > 100 | 4.47 |  | > 32.9 | 4.02 | 18.1 |  | > 84.4 |  |  | > 54.2 | > 31.4 |
| O=[N+]([O-])c1c2nc3n(c2cc2c1nc1n2CCC1)CCC3 | > 100 | > 100 | > 100 | > 100 | > 100 | > 100 | > 100 | > 100 | > 100 | > 100 | > 100 | > 100 | > 100 | > 100 | > 100 | > 100 | > 100 |  | > 100 | > 100 |
| COc1ccc(/C=N/NC(=O)c2cnc3[nH]c(=O)n(C)c(=O)c3c2)cc1 | > 100 | > 100 | > 100 | > 100 |  | > 100 | > 100 | > 100 | > 100 |  | > 100 | > 100 |  | > 100 | > 100 | > 100 | > 100 | > 100 | > 100 | 98.8 |
| O=C1c2ccccc2C(=O)c2c(O)ccc(O)c21 | > 100 | > 100 | > 100 | > 100 | > 100 | > 100 | > 100 | > 100 | > 100 | > 100 | > 100 | > 100 | > 100 | > 100 | > 100 | > 100 |  |  |  | > 100 |
| Clc1c(C(Cl)(Cl)Cl)nsc1N1CCCCC1 | 34.7 | > 100 | 78.9 | 64.7 | 32.5 | > 100 | > 100 | 44.3 | > 100 | 46.1 | 56.4 | 71 | 68.5 | 30.5 | > 100 | > 100 | > 100 | 48.4 |  | 69.7 |
| CC(C)OC(=O)[C@@H](O)[C@H](CO)C1=CC([Si](C)(C)c2ccccc2)=CON1 | > 100 | > 100 | > 100 | > 100 | > 100 | > 100 | > 100 | > 100 | > 100 | > 100 | > 100 | > 100 | > 100 | > 100 | > 100 |  |  | > 100 | > 100 | > 100 |
| NC1(C(=O)O)CCCC1 | > 625 | > 625 | > 625 | > 625 | > 625 |  | > 625 | > 625 | > 625 |  |  | > 625 | > 625 | > 625 | > 625 | > 625 |  |  | > 625 | > 99.1 |
| O=C1ON=C2C3CC4CC12CC1(C3)C(=O)ON=C41 | > 100 | > 100 |  | > 100 | > 100 | > 100 | > 100 | > 100 | > 100 | > 100 | > 100 | > 100 | > 100 | > 100 | > 100 | > 100 |  | > 100 | > 100 | > 100 |
| c1ccc2c(c1)CC1COc3ccccc3C1O2 (stereo not given) | > 100 |  | > 100 | > 100 | > 100 | > 100 | > 100 | > 100 | > 100 | > 100 | > 100 | > 100 | > 100 | > 100 | > 100 | > 100 |  | > 100 | > 100 |  |
| C#CC(O)/C=C/C(O)CCCC(O)CC#CC(O)C#CC(O)CCCC(O)/C=C/CCCC(=O)CCCCCCCCCCCCCCCC(O)C(O)C#CC(=O)O (stereo not given) | > 50 | 28.2 | > 50 | > 50 | 20.8 | > 50 | > 50 | 22.1 | > 50 |  | > 50 | > 50 |  | > 50 | > 50 | 21.1 | > 50 |  | > 50 | > 50 |
| Clc1ncc(Cl)c(Cl)n1 | 42.3 | 3.53 | 14.3 | 14.3 | 3.22 | 3.63 | 28.8 | 7.17 | 34.2 | 40.2 | 10.6 | 19.3 | 24.6 | 3.3 | 11.2 | 23.3 | 14.9 |  | 20.5 | 10.3 |
| N#Cc1nc(CCC(c2nc(C#N)c(N)o2)N2C(=O)c3ccccc3C2=O)oc1N (stereo not given) | > 100 | > 100 | > 100 | > 100 | > 100 | > 100 | > 100 | > 100 | > 100 | > 100 | > 100 |  | > 100 | > 100 | > 100 | > 100 | > 100 |  | > 100 | > 100 |
| COC(=O)[C@H](Cc1ccccc1)NP(=O)(O)OCC1C=CC(n2cc(C)c(=O)[nH]c2=O)O1 (stereo not given in full) | > 100 | > 100 | > 100 | > 100 | > 100 | 62.6 | > 100 | > 100 | > 100 |  | > 100 | > 100 |  | > 100 | > 100 | > 100 | > 100 | > 100 | > 100 | > 100 |
